Earlier results as cited in patent US20150030666A1, “ADHESIVE SKIN PATCH” (KM TRANSDERM LTD., priority 2011, published 2015).

Conditions: in vivo, po

half-life in blood: about 50 hr
SMILES: O=C(O[C@H]1CN2CCC1CC2)N1CCc2ccccc2[C@@H]1c1ccccc1 [solifenacin succinate, (3R)-1-azabicyclo[2.2.2]oct-3-yl(1S)-1-phenyl-3,4-dihydroisoquinoline-2(1H)-carboxylate]
